# Experimental data from patent publication US8628767B2, “Purine nucleoside phosphorylase as enzymatic activator of nucleoside prodrugs” (priority 2008, dated 2014).
# What was measured:
# [1] = molecular target: E. coli PNP (Escherichia coli, UniProt P0ABP8); experiment: Substrate cleavage by wild-type E. coli PNP (HPLC); type: biochemical; details: 100 micromolar substrate, HPLC separation of base from nucleoside
# Procedure: (§1) The method quantitatively measures the cleavage of substrates in vitro. The purine analog nucleosides (0.1 mM in 500 μl of 100 mM HEPES, pH 7.4, 50 mM potassium phosphate) are combined with 100 μg/ml Tv-PNP or wild-type E. coli PNP. The reaction mixtures are incubated at 25° C. for 1 hour, and the reactions stopped by boiling each sample for 2 minutes. Protein concentration and time of assay are varied depending on activity of enzyme for a particular substrate. Each sample is analyzed by reverse phase HPLC to measure conversion from substrate to product. The nucleoside and purine analogs are eluted from a Spherisorb ODSI (5 μm) column (Keystone Scientific, Inc., State College, Pa.) with a solvent containing 50 mM ammonium dihydrogen phosphate (95%) and acetonitrile (5%). Products are detected by absorbance at 254 nm, and are identified by comparing their retention times and absorption spectra with authentic control samples.
# Numerous compounds are tested for efficiency as substrate for Tv-PNP in parallel comparison with E. coli PNP. […] The enzymes are incubated with 100 micromolar of each compound listed in the table and the rate of enzymatic cleavage is determined by HPLC separation of the base from the nucleoside.
# [2] = system: T. vaginalis PNP; experiment: Substrate cleavage by wild-type Tv-PNP (HPLC); type: biochemical, Trichomonas vaginalis; details: for rate of enzymatic cleavage by T. vaginalis PNP: 100 micromolar substrate, HPLC separation of base from nucleoside; for activity of Tv-PNP as compared to wild-type E. coli PNP: summary of Table 1
# Procedure: as §1
# Numerous compounds are tested for efficiency as substrate for Tv-PNP in parallel comparison with E. coli PNP. The compounds include various analogs of adenosine, of inosine, of MeP-dR, and of fluoro- or chloro-substituted adenosine. The enzymes are incubated with 100 micromolar of each compound listed in the table and the rate of enzymatic cleavage is determined by HPLC separation of the base from the nucleoside. […] It is appreciated that the greater biological activity of the Tv-PNP enzyme allows for greater activity in impairing abnormal cell growth when the Tv-PNP is used for treatment of pathological conditions using F-araA as a prodrug substrate.
# Chain of E. coli PNP (P0ABP8 whole entry): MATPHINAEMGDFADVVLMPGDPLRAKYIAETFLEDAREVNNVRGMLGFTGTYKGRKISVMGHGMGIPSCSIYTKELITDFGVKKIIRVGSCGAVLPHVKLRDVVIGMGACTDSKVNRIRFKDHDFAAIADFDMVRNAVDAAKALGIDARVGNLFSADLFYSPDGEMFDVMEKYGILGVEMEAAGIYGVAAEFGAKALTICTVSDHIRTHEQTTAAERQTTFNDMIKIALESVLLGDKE
Compound,rate of enzymatic cleavage by E. coli PNP [1],rate of enzymatic cleavage by T. vaginalis PNP [2],rate of enzymatic cleavage by E. coli PNP ([1]; listed as Cl-dAdo),rate of enzymatic cleavage by T. vaginalis PNP ([2]; listed as Cl-dAdo),activity of Tv-PNP as compared to wild-type E. coli PNP [2]
9-β-D-pyranosyl-adenine,<1 nanomoles per milligrams per hour,2 nanomoles per milligrams per hour,,,
"Nc1nc(Cl)nc2c1ncn2[C@H]1C[C@H](O)[C@@H](CO)O1 [2-Cl-2′-deoxyadenosine (Cl-dAdo), 2-chloro-2′-deoxyadenosine, reference compound]","39,000 nanomoles per milligrams per hour","352,000 nanomoles per milligrams per hour","39,000 nanomoles per milligrams per h","320,000 nanomoles per milligrams per h",more activity
"Nc1nc(Cl)nc2c1ncn2[C@H]1C[C@H](O)[C@@H](CO)O1 [2-Cl-2′-deoxyadenosine (α-L), 2-Cl-2′-deoxyadenosine]",<1 nanomoles per milligrams per hour,<8 nanomoles per milligrams per hour,,,
"Nc1nc(Cl)nc2c1ncn2[C@H]1C[C@H](O)[C@@H](CO)O1 [2-Cl-2′-deoxyadenosine (β-L), 2-Cl-2′-deoxyadenosine]",<1 nanomoles per milligrams per hour,<8 nanomoles per milligrams per hour,,,
"Nc1nc(F)nc2c1ncn2[C@H]1C[C@H](O)[C@@H](CO)O1 [2-F-2′-deoxyadenosine (F-dAdo), 2-fluoro-2′-deoxyadenosine]","435,000 nanomoles per milligrams per hour","400,000 nanomoles per milligrams per hour",,,
"C[C@H]1O[C@@H](n2cnc3c(N)nc(F)nc32)[C@H](O)[C@@H]1O [2-F-5′-deoxy-adenosine, 2-fluoro-5′-deoxyadenosine]","29,000 nanomoles per milligrams per hour","50,000 nanomoles per milligrams per hour",,,more activity
Nc1nc(F)nc2c1ncn2[C@@H]1O[C@H](CO)[C@@H](O)[C@H]1O [2-F-adenosine],"215,000 nanomoles per milligrams per hour","185,000 nanomoles per milligrams per hour",,,
"Nc1ncnc2c1ncn2[C@H]1CC[C@@H](CO)O1 [2′,3′-dideoxyadenosine]",<2 nanomoles per milligrams per hour,640 nanomoles per milligrams per hour,,,
CO[C@@H]1[C@H](O)[C@@H](CO)O[C@H]1n1cnc2c(N)ncnc21 [2′-O^methyl-adenosine],<1 nanomoles per milligrams per hour,<10 nanomoles per milligrams per hour,,,
"OC[C@H]1O[C@@H](n2cnc3c(O)ncnc32)C[C@@H]1O [2′-deoxyinosine, reference compound]","733,000 nanomoles per milligrams per hour","660,000 nanomoles per milligrams per hour",,,
"Nc1ncnc2c1ncn2[C@@H]1O[C@H](CO)C[C@H]1O [3′-deoxyadenosine (cordycepin), 3′-deoxyadenosine, reference compound]",<2 nanomoles per milligrams per hour,"2,000 nanomoles per milligrams per hour",,,
NC[C@H]1O[C@@H](n2cnc3c(N)ncnc32)[C@H](O)[C@@H]1O [5′-amino-5′-deoxyadenosine],540 nanomoles per milligrams per hour,"4,200 nanomoles per milligrams per hour",,,
NC(=O)[C@H]1O[C@@H](n2cnc3c(N)ncnc32)[C@H](O)[C@@H]1O [5′-carboxamide of adenosine],<1 nanomoles per milligrams per hour,33 nanomoles per milligrams per hour,,,
C[C@H]1O[C@@H](n2cnc3c(N)ncnc32)[C@H](O)[C@@H]1O [5′-deoxyadenosine],"8,400 nanomoles per milligrams per hour","50,000 nanomoles per milligrams per hour",,,
Cc1ncnc2ncn([C@H]3C[C@H](O)[C@H](CO)O3)c12 [7-[2-deoxy-α-L-lyxofuranosyl]-6-methylpurine],<1 nanomoles per milligrams per hour,<8 nanomoles per milligrams per hour,,,
Nc1nc2ncn([C@@H]3O[C@H](CO)[C@@H](O)[C@H]3O)c2c(=S)[nH]1 [7-β-D-ribosyl-6-thioguanine],66 nanomoles per milligrams per hour,435 nanomoles per milligrams per hour,,,
O=c1[nH]cnc2ncn([C@@H]3O[C@H](CO)[C@@H](O)[C@H]3O)c12 [7-β-D-ribosyl-hypoxanthine],"5,200 nanomoles per milligrams per hour","2,300 nanomoles per milligrams per hour",,,
Cc1ncnc2c1ncn2[C@@H]1C[C@H](O)[C@@H](CO)O1 [9-[2-deoxy-α-D-ribofuranosyl]-6-methylpurine],<1 nanomoles per milligrams per hour,<8 nanomoles per milligrams per hour,,,
"Cc1ncnc2c1ncn2[C@@H]1O[C@H](C(C)(C)O)[C@@H](O)[C@H]1O [9-[5,5-dimethyl-β-D-ribofuranosyl]-6-methylpurine]",<1 nanomoles per milligrams per hour,<8 nanomoles per milligrams per hour,,,
Cc1ncnc2c1ncn2[C@@H]1O[C@@H](CI)[C@@H](O)[C@H]1O [9-[5-deoxy-5-iodo-α-L-lyxofuranosyl]-6-methylpurine],<1 nanomoles per milligrams per hour,<8 nanomoles per milligrams per hour,,,
Cc1ncnc2c1ncn2[C@@H]1O[C@@H](C)[C@@H](O)[C@H]1O [9-[5-deoxy-α-L-lyxofuranosyl]-6-methylpurine],20 nanomoles per milligrams per hour,246 nanomoles per milligrams per hour,,,
Cc1ncnc2c1ncn2[C@@H]1O[C@H](C)[C@@H](O)[C@H]1O [9-[5-deoxy-β-D-ribofuranosyl]-6-methylpurine],406 nanomoles per milligrams per hour,"3,600 nanomoles per milligrams per hour",,,
Cc1ncnc2c1ncn2[C@@H]1O[C@H]([C@@H](C)O)[C@@H](O)[C@H]1O [9-[5-methyl-(allo)-β-D-ribofuranosyl]-6-methylpurine],47 nanomoles per milligrams per hour,223 nanomoles per milligrams per hour,,,more activity
Cc1ncnc2c1ncn2[C@H]1C[C@H](O)[C@@H]([C@H](C)O)O1 [9-[5-methyl-(talo)-2-deoxy-β-D-ribofuranosyl]-6-methylpurine],"3,600 nanomoles per milligrams per hour","103,000 nanomoles per milligrams per hour",,,more activity
Cc1ncnc2c1ncn2[C@@H]1O[C@H]([C@H](C)O)[C@@H](O)[C@H]1O [9-[5-methyl-(talo)-β-D-ribofuranosyl]-6-methylpurine],915 nanomoles per milligrams per hour,"8,400 nanomoles per milligrams per hour",,,more activity
Cc1ncnc2c1ncn2[C@@H]1O[C@H](CO)[C@@H](O)[C@@H]1O [9-[β-D-arabinofuranosyl]-6-methylpurine],14 nanomoles per milligrams per hour,570 nanomoles per milligrams per hour,,,
"Nc1nc(F)nc2c1ncn2[C@@H]1O[C@@H](CO)[C@@H](O)[C@H]1O [9-α-L-lyxofuranosyl-2-F-adenine, 9-(α-L-lyxofuranosyl)-2-fluoroadenine]","7,800 nanomoles per milligrams per hour","28,200 nanomoles per milligrams per hour",,,more activity
Cc1ncnc2c1ncn2[C@@H]1O[C@@H](CO)[C@@H](O)[C@H]1O [9-α-L-lyxofuranosyl-6-methylpurine],320 nanomoles per milligrams per hour,"10,000 nanomoles per milligrams per hour",,,
Nc1ncnc2c1ncn2[C@@H]1O[C@@H](CO)[C@@H](O)[C@H]1O [9-α-L-lyxofuranosyl-adenine],"3,700 nanomoles per milligrams per hour","22,000 nanomoles per milligrams per hour",,,
"Nc1ncnc2c1ncn2[C@@H]1O[C@H](CO)[C@@H](O)[C@H]1O [Adenosine, reference compound]",,"501,000 nanomoles per milligrams per hour",,,
